Data: patent publication US20260234129A1, “NOVEL IMIDAZOLE DERIVATIVE AND USE THEREOF” (PELEMED CO., LTD., priority 2023, published 2026)

Columns and labels:
Assay in all cases: scanMax kinase panel (Eurofins)
Assay type in all cases: binding
[1] = biological target: T1, ABL1(F317I)-phosphorylated (Homo sapiens, UniProt P00519, F317I); conditions: read-out: % control
T1 construct: purchased Eurofins
Experimental: (§1) The following assay method was performed to evaluate the inhibitory activities of a compound according to the present invention with respect to various enzymes. […] The compound was applied to the enzyme at a concentration of 1 μM, dissolved in DMSO, and the % control was determined according to Equation 1 below.
(§2) Here, the positive control refers to a compound corresponding to 0% control, and the negative control refers to a compound corresponding to 100% control.

[2] = biological target: T2, ABL1(H396P)-nonphosphorylated (Homo sapiens, UniProt P00519, H396P); conditions: read-out: % control
T2 construct: purchased Eurofins
Experimental: as §1, §2

[3] = biological target: T3, ABL1(T315I)-phosphorylated (Homo sapiens, UniProt P00519, T315I); conditions: read-out: % control
T3 construct: purchased Eurofins
Experimental: as §1, §2

[4] = biological target: T4, ABL1(Y253F)-phosphorylated (Homo sapiens, UniProt P00519, Y253F); conditions: read-out: % control
T4 construct: purchased Eurofins
Experimental: as §1, §2

ARK5 = biological target: T5, ARK5 (Homo sapiens, UniProt O60285); conditions: ARK5, 1 μM; read-out: % control
T5 construct: purchased Eurofins
Experimental: as §1, §2

AURKC = biological target: T6, AURKC (Homo sapiens, UniProt Q9UQB9); conditions: read-out: % control
T6 construct: purchased Eurofins
Experimental: as §1, §2

CDK3 = biological target: T7, CDK3 (Homo sapiens, UniProt Q00526); conditions: CDK3, 1 μM; read-out: % control
T7 construct: purchased Eurofins
Experimental: as §1, §2

CDK4-cycllinDl = biological target: T8, CDK4-cycllinDl (Homo sapiens, UniProt P11802); conditions: read-out: % control
T8 construct: purchased Eurofins
Experimental: as §1, §2

DYRK1B = biological target: T9, DYRK1B (Homo sapiens, UniProt Q9Y463); conditions: read-out: % control
T9 construct: purchased Eurofins scanMax® kinase panel
Experimental: as §1, §2

ERK1 = biological target: T10, ERK1 (Homo sapiens, UniProt P27361); conditions: ERK1, 1 μM; read-out: % control
T10 construct: purchased Eurofins scanMax® kinase panel
Experimental: as §1, §2

ERK3 = biological target: T11, ERK3 (Homo sapiens, UniProt Q16659); conditions: ERK3, 1 μM; read-out: % control
T11 construct: purchased Eurofins scanMax® kinase panel
Experimental: as §1, §2

ERK4 = biological target: T12, ERK4 (Homo sapiens, UniProt P31152); conditions: ERK4, 1 μM; read-out: % control
T12 construct: purchased Eurofins scanMax® kinase panel
Experimental: as §1, §2

ERK8 = biological target: T13, ERK8 (Homo sapiens, UniProt Q8TD08); conditions: ERK8, 1 μM; read-out: % control
T13 construct: purchased Eurofins scanMax® kinase panel
Experimental: as §1, §2

HIPK4 = biological target: T14, HIPK4 (Homo sapiens, UniProt Q8NE63); conditions: HIPK4, 1 μM; read-out: % control
T14 construct: purchased Eurofins
Experimental: as §1, §2

IRAKI = biological target: T15, IRAKI (Homo sapiens, UniProt P51617); conditions: read-out: % control
T15 construct: purchased Eurofins
Experimental: as §1, §2

[5] = biological target: T16, JAK3(JH1domain-catalytic) (Homo sapiens, UniProt P52333); conditions: read-out: % control
T16 construct: JAK3(JH1domain-catalytic); purchased Eurofins
Experimental: as §1, §2

[6] = biological target: T17, JAKI(JH1domain-catalytic) (Homo sapiens, UniProt P23458); conditions: read-out: % control
T17 construct: JAKI(JH1domain-catalytic); purchased Eurofins
Experimental: as §1, §2

KIT(A829P) = biological target: T18, KIT(A829P) (Homo sapiens, UniProt P10721, A829P); conditions: read-out: % control
T18 construct: purchased Eurofins
Experimental: as §1, §2

KIT(L576P) = biological target: T19, KIT(L576P) (Homo sapiens, UniProt P10721, L576P); conditions: read-out: % control
T19 construct: purchased Eurofins
Experimental: as §1, §2

KIT(V559D) = biological target: T20, KIT(V559D) (Homo sapiens, UniProt P10721, V559D); conditions: read-out: % control
T20 construct: purchased Eurofins
Experimental: as §1, §2

KIT(V559D, V654A) = biological target: T21, KIT(V559D, V654A) (Homo sapiens, UniProt P10721, V559D/V654A); conditions: read-out: % control
T21 construct: purchased Eurofins
Experimental: as §1, §2

MAP3K15 = biological target: T22, MAP3K15 (Homo sapiens, UniProt Q6ZN16); conditions: MAP3K15, 1 μM; read-out: % control
T22 construct: purchased Eurofins
Experimental: as §1, §2

MEK2 = biological target: T23, MEK2 (Homo sapiens, UniProt P36507); conditions: MEK2, 1 μM; read-out: % control
T23 construct: purchased Eurofins
Experimental: as §1, §2

MEK4 = biological target: T24, MEK4 (Homo sapiens, UniProt P45985); conditions: MEK4, 1 μM; read-out: % control
T24 construct: purchased Eurofins
Experimental: as §1, §2

MEK6 = biological target: T25, MEK6 (Homo sapiens, UniProt P52564); conditions: MEK6, 1 μM; read-out: % control
T25 construct: purchased Eurofins scanMax kinase panel
Experimental: as §1, §2

PAK2 = biological target: T26, PAK2 (Homo sapiens, UniProt Q13177); conditions: PAK2, 1 μM; read-out: % control
T26 construct: purchased Eurofins scanMax kinase panel
Experimental: as §1, §2

PAK6 = biological target: T27, PAK6 (Homo sapiens, UniProt Q9NQU5); conditions: PAK6, 1 μM; read-out: % control
T27 construct: purchased Eurofins scanMax kinase panel
Experimental: as §1, §2

PAK7 = biological target: T28, PAK7 (Homo sapiens, UniProt Q9P286); conditions: PAK7, 1 μM; read-out: % control
T28 construct: purchased Eurofins scanMax kinase panel
Experimental: as §1, §2

PAKI = biological target: T29, PAKI (Homo sapiens, UniProt Q13153); conditions: read-out: % control
T29 construct: purchased Eurofins scanMax kinase panel
Experimental: as §1, §2

RET = biological target: T30, RET (Homo sapiens, UniProt P07949); conditions: read-out: % control
T30 construct: purchased Eurofins scanMax kinase panel
Experimental: as §1, §2

RET(M918T) = biological target: T31, RET(M918T) (Homo sapiens, UniProt P07949, M918T); conditions: read-out: % control
T31 construct: purchased Eurofins scanMax kinase panel
Experimental: as §1, §2

RET(V804L) = biological target: T32, RET(V804L) (Homo sapiens, UniProt P07949, V804L); conditions: read-out: % control
T32 construct: purchased Eurofins scanMax kinase panel
Experimental: as §1, §2

ROCKI = biological target: T33, ROCKI (Homo sapiens, UniProt Q13464); conditions: read-out: % control
T33 construct: purchased Eurofins scanMax kinase panel
Experimental: as §1, §2

T5 sequence (O60285 whole entry): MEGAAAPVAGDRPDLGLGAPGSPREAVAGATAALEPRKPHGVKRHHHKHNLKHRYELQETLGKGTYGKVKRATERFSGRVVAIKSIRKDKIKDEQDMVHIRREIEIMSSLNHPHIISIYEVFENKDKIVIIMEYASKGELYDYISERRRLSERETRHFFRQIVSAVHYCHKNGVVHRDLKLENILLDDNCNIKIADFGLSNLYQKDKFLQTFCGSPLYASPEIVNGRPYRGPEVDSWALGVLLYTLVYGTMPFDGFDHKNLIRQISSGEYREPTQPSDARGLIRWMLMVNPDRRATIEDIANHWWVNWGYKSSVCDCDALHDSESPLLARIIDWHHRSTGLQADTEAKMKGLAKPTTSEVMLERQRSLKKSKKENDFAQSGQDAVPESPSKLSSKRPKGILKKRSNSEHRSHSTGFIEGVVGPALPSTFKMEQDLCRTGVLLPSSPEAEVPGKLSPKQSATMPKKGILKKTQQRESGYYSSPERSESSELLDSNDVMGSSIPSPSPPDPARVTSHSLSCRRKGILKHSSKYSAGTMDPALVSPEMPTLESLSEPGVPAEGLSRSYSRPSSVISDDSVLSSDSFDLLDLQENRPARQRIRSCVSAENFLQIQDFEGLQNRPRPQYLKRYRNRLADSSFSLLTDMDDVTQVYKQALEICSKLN
T21 sequence (P10721 26-976 V559D/V654A): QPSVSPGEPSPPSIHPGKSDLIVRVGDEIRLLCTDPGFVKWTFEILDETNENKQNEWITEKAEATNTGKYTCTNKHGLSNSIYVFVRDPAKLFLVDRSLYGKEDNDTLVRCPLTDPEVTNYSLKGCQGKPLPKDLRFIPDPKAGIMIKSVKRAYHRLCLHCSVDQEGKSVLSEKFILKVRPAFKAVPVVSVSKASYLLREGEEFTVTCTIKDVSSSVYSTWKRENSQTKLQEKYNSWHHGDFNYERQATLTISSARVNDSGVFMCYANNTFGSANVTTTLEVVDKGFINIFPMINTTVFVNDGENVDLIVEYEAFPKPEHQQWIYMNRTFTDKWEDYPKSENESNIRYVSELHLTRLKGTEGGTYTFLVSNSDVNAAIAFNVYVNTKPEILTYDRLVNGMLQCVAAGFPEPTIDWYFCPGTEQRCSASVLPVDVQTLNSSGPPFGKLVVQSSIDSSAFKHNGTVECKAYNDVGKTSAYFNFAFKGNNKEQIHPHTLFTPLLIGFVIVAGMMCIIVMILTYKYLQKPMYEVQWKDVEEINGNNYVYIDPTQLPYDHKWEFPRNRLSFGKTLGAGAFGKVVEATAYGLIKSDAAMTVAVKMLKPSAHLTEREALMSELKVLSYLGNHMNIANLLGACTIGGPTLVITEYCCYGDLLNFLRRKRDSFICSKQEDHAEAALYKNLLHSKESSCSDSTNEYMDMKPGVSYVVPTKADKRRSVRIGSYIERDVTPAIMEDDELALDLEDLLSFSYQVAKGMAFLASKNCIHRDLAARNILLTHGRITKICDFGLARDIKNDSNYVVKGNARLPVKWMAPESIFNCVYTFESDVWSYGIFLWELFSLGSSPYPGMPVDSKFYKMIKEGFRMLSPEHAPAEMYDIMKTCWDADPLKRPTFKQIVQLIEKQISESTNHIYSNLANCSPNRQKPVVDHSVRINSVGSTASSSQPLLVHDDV
T31 sequence (P07949 29-1114 M918T): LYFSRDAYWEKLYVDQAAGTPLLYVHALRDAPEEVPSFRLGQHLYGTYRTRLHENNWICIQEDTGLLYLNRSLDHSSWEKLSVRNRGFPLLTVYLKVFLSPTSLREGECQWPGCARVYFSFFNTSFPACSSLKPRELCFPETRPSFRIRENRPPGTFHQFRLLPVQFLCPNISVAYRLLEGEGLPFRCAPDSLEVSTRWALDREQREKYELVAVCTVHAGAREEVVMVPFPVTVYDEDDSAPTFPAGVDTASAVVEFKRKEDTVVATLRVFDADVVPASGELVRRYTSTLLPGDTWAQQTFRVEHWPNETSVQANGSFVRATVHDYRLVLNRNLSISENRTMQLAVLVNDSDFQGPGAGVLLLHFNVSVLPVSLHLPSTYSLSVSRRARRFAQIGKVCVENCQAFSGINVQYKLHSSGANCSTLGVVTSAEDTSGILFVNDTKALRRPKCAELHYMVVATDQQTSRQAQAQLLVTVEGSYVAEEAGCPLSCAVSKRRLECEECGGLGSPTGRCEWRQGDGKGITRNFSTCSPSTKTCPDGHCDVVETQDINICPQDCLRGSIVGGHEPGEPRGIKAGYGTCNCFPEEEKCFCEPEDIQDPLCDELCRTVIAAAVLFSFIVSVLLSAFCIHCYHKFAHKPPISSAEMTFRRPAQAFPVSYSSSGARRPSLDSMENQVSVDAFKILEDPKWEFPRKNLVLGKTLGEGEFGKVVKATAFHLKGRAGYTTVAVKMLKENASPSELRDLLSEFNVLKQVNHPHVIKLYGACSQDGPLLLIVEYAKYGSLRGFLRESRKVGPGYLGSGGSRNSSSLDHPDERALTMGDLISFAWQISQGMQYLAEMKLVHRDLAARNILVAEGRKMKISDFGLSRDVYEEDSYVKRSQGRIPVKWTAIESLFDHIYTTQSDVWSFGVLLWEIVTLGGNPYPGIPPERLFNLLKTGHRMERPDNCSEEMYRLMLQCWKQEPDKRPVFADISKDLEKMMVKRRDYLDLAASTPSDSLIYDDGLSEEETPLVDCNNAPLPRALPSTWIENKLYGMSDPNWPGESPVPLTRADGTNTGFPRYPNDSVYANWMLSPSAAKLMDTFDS
T13 sequence (Q8TD08 whole entry): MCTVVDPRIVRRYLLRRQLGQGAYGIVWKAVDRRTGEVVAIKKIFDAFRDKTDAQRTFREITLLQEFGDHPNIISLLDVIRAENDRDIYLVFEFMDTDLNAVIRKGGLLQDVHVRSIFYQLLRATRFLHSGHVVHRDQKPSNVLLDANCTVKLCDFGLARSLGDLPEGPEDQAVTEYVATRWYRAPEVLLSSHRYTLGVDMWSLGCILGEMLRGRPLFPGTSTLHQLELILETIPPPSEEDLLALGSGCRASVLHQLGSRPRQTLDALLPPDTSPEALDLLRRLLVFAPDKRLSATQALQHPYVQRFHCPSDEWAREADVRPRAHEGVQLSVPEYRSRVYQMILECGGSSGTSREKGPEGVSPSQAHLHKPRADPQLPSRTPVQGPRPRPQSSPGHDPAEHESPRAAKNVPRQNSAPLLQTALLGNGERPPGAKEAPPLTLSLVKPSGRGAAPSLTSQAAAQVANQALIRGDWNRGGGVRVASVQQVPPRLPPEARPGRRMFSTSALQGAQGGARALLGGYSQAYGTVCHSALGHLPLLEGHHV
T23 sequence (P36507 whole entry): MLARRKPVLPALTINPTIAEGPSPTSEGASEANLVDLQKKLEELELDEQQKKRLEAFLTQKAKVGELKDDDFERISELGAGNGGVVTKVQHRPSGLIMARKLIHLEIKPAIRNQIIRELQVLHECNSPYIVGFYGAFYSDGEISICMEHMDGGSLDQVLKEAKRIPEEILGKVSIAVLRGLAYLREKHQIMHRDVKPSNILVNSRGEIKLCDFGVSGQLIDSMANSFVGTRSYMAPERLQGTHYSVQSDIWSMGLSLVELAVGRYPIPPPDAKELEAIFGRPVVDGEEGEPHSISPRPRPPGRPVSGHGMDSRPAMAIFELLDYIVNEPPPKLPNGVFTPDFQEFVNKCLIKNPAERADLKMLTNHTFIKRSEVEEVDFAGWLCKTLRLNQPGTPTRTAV
T17 sequence (P23458 875-1153 limits assumed): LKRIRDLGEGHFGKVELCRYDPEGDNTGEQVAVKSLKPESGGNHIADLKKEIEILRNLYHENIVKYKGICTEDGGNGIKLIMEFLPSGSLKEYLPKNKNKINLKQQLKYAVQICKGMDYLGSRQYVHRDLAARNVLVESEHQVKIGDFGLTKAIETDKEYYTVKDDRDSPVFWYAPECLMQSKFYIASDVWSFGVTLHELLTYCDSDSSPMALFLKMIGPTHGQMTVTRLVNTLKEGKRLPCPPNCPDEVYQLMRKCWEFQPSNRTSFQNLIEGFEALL
T18 sequence (P10721 26-976 A829P): as the sequence (P10721 26-976 V559D/V654A) above, with D534V, A629V, A804P counted along it
T30 sequence (P07949 29-1114): as the sequence (P07949 29-1114 M918T) above, with T890M counted along it
T28 sequence (Q9P286 whole entry): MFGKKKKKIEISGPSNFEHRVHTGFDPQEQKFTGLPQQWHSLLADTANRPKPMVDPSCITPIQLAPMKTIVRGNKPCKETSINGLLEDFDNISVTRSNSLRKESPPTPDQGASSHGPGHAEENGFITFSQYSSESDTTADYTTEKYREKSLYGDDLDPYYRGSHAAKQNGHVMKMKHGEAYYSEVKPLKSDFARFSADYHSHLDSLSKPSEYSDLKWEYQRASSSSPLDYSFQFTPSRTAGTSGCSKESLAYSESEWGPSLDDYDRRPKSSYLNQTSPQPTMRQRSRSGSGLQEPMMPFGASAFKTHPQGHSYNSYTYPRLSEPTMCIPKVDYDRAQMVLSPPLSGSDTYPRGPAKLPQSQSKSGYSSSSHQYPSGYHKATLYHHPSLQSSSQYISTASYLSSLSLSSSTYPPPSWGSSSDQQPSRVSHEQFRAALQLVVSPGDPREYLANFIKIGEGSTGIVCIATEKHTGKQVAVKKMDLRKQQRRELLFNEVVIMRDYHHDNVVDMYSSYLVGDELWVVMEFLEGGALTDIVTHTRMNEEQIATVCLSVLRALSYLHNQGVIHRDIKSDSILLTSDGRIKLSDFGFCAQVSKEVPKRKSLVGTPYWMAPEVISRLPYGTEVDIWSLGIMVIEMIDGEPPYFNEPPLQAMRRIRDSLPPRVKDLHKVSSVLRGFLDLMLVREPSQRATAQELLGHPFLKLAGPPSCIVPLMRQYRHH
T19 sequence (P10721 26-976 L576P): as the sequence (P10721 26-976 V559D/V654A) above, with D534V, L551P, A629V counted along it
T20 sequence (P10721 26-976 V559D): as the sequence (P10721 26-976 V559D/V654A) above, with A629V counted along it
T32 sequence (P07949 29-1114 V804L): as the sequence (P07949 29-1114 M918T) above, with V776L, T890M counted along it

- remaining binding at 1 µM [1]: < 10%
- remaining binding at 1 µM [2]: < 10%
- remaining binding at 1 µM [3]: < 10%
- remaining binding at 1 µM [4]: < 10%
- remaining binding at 1 µM (ARK5): < 10%
- remaining binding at 1 µM (AURKC): < 10%
- remaining binding at 1 µM (CDK3): < 10%
- remaining binding at 1 µM (CDK4-cycllinDl): < 10%
- remaining binding at 1 µM (DYRK1B): < 10%
- remaining binding at 1 µM (ERK1): < 10%
- remaining binding at 1 µM (ERK3): < 10%
- remaining binding at 1 µM (ERK4): < 10%
- remaining binding at 1 µM (HIPK4): < 10%
- remaining binding at 1 µM (IRAKI): < 10%
- remaining binding at 1 µM [5]: < 10%
- remaining binding at 1 µM [6]: < 10%
- remaining binding at 1 µM (KIT(A829P)): < 10%
- remaining binding at 1 µM (KIT(L576P)): < 10%
- remaining binding at 1 µM (KIT(V559D)): < 10%
- remaining binding at 1 µM (KIT(V559D, V654A)): < 10%
- remaining binding at 1 µM (MAP3K15): < 10%
- remaining binding at 1 µM (MEK2): < 10%
- remaining binding at 1 µM (MEK4): < 10%
- remaining binding at 1 µM (MEK6): < 10%
- remaining binding at 1 µM (PAK2): < 10%
- remaining binding at 1 µM (PAK6): < 10%
- remaining binding at 1 µM (PAK7): < 10%
- remaining binding at 1 µM (PAKI): < 10%
- remaining binding at 1 µM (RET): < 10%
- remaining binding at 1 µM (RET(M918T)): < 10%
- remaining binding at 1 µM (RET(V804L)): < 10%
- remaining binding at 1 µM (ROCKI): < 10%
Compound: COc1ccc2nc(-c3n[nH]c4ccc(C(=O)N[C@H]5CC[C@H](N)C5)cc34)[nH]c2c1 [Example 32, N-((1S,3S)-3-aminocyclopentyl)-3-(6-methoxy-1H-benzo[d]imidazol-2-yl)-1H-indazole-5-carboxamide]
- remaining binding at 1 µM (ERK8): < 10%
